Patent publication US8124793B2, “Derivatives of ethylene methanedisulfonate as cancer chemotherapeutic agents” (priority 2007, dated 2012)

Tests used:
Format in all cases: cell-based
[1] = system: NCI-H522; assay: NCI screen, growth of human tumor cells: Non-Small Cell Lung NCI-H522; conditions: NCI-H522 (Non-Small Cell Lung), 10^−4 molar
Outline: (§1)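 NCI screening: compound applied to tumor cell lines at a given molar concentration, growth measured as percent. Minimum 60 data points/compound; cancer type noted.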

[2] = system: SF-268; assay: NCI screen, growth of human tumor cells: CNS Cancer SF-268
Outline: as §1

[3] = system: KM12; assay: NCI screen, growth of human tumor cells: Colon Cancer KM12; conditions: KM12 (Colon Cancer), 10^−4 molar
Outline: as §1

[4] = system: SK-MEL-2; assay: NCI screen, growth of human tumor cells: Melanoma SK-MEL-2; conditions: SK-MEL-2 (Melanoma), 10^−4 molar
Outline: as §1

[5] = system: BT-549; assay: NCI screen, growth of human tumor cells: Breast Cancer BT-549; conditions: for percent of growth of human tumor cells: BT-549 (Breast Cancer), 10^−4 molar
Outline: as §1

[6] = system: SF-539; assay: NCI screen, growth of human tumor cells: CNS Cancer SF-539
Outline: as §1

[7] = system: human cancer cells; assay: NCI screen summary over the cancers tested (negative growth of human cancer cells); conditions: 10^−4 M conc.; cancers with negative growth / cancers tested
Experimental: (§2) In the NCI screening process, each compound was tested and described by a minimum of 60 data points. The test data include, but are not limited to the type of cancer, the molar concentration used in the screen, and the percent growth of the cancer. In some cases, NMR and elemental analysis were used for structural assignment.
The derivatives in the tables are grouped using the same category as in the tables 1-6.

[8] = system: T-47D; assay: NCI screen, growth of human tumor cells: Breast Cancer T-47D; conditions: T-47D (Breast Cancer), 10^−4 molar
Experimental: as §2

[9] = system: LOXIMVI; assay: NCI screen, growth of human tumor cells: Melanoma LOXIMVI; conditions: for percent of growth of human tumor cells: LOXIMVI (Melanoma); for % Growth: LOXIMVI
Experimental: as §2

[10] = system: MCF 7; assay: NCI screen, growth of human tumor cells: Breast Cancer MCF 7; conditions: MCF 7 (Breast Cancer), 10^−4 molar
Outline: as §1

[11] = system: HS 578T; assay: NCI screen, growth of human tumor cells: Breast Cancer HS 578T; conditions: HS 578T (Breast Cancer), 10^−4 molar
Outline: as §1

[12] = system: OVCAR-4; assay: NCI screen, growth of human tumor cells: Ovarian Cancer OVCAR-4; conditions: OVCAR-4 (Ovarian Cancer), 10^−4 molar
Outline: as §1

[13] = system: HOP-62; assay: NCI screen, growth of human tumor cells: Non-Small Cell Lung HOP-62
Outline: as §1

[14] = system: MCF7/ADR-RES; assay: NCI screen, growth of human tumor cells: Breast Cancer MCF7/ADR-RES; conditions: for % Growth: MCF7/ADR-RES
Outline: as §1

[15] = system: SR; assay: NCI screen, growth of human tumor cells: Leukemia SR; conditions: SR (Leukemia), 10^−4 molar
Outline: as §1

[16] = system: CCRF-CEM; assay: NCI screen, growth of human tumor cells: Leukemia CCRF-CEM; conditions: CCRF-CEM (Leukemia), 10^−4 molar
Outline: as §1

[17] = system: HL-60 (TB); assay: NCI screen, growth of human tumor cells: Leukemia HL-60 (TB); conditions: HL-60 (TB) (Leukemia), 10^−4 molar
Experimental: as §2

[18] = system: RXF-393; assay: NCI screen, growth of human tumor cells: Renal Cancer RXF-393; conditions: RXF-393 (Renal Cancer), 10^−4 molar
Outline: as §1

[19] = system: ACHN; assay: NCI screen, growth of human tumor cells: Renal Cancer ACHN; conditions: ACHN (Renal Cancer), 10^−4 molar
Outline: as §1

[20] = system: NCI-H23; assay: NCI screen, growth of human tumor cells: Non-Small Cell Lung NCI-H23; conditions: NCI-H23 (Non-Small Cell Lung), 10^−4 molar
Outline: as §1

[21] = system: RPMI-8226; assay: NCI screen, growth of human tumor cells: Leukemia RPMI-8226; conditions: RPMI-8226 (Leukemia), 10^−4 molar
Outline: as §1

[22] = system: MOLT-4; assay: NCI screen, growth of human tumor cells: Leukemia MOLT-4; conditions: MOLT-4 (Leukemia), 10^−4 molar
Outline: as §1

[23] = system: SF-295; assay: NCI screen, growth of human tumor cells: CNS Cancer SF-295
Outline: as §1

[24] = system: U-251; assay: NCI screen, growth of human tumor cells: CNS Cancer U-251; conditions: U-251 (CNS Cancer), 10^−4 molar
Outline: as §1

[25] = system: SNB-75; assay: NCI screen, growth of human tumor cells: CNS Cancer SNB-75; conditions: SNB-75 (CNS Cancer), 10^−4 molar
Outline: as §1

[26] = system: HCT-15; assay: NCI screen, growth of human tumor cells: Colon Cancer HCT-15; conditions: HCT-15 (Colon Cancer), 10^−4 molar
Outline: as §1

[27] = system: SK-OV-3; assay: NCI screen, growth of human tumor cells: Ovarian Cancer SK-OV-3; conditions: SK-OV-3 (Ovarian Cancer), 10^−4 molar
Outline: as §1

[28] = system: UACC-62; assay: NCI screen, growth of human tumor cells: Melanoma UACC-62
Outline: as §1

[29] = system: 786-0; assay: NCI screen, growth of human tumor cells: Renal Cancer 786-0; conditions: 786-0 (Renal Cancer), 10^−4 molar
Outline: as §1

[30] = system: HCT-116; assay: NCI screen, growth of human tumor cells: Colon Cancer HCT-116; conditions: HCT-116 (Colon Cancer), 10^−4 molar
Outline: as §1

[31] = system: CAKI-1; assay: NCI screen, growth of human tumor cells: Renal Cancer CAKI-1; conditions: CAKI-1 (Renal Cancer), 10^−4 molar
Outline: as §1

[32] = system: SN12C; assay: NCI screen, growth of human tumor cells: Renal Cancer SN12C; conditions: SN12C (Renal Cancer), 10^−4 molar
Outline: as §1

[33] = system: OVCAR-3; assay: NCI screen, growth of human tumor cells: Ovarian Cancer OVCAR-3; conditions: OVCAR-3 (Ovarian Cancer), 10^−4 molar
Outline: as §1

[34] = system: HOP-92; assay: NCI screen, growth of human tumor cells: Non-Small Cell Lung HOP-92; conditions: HOP-92 (Non-Small Cell Lung), 10^−4 molar
Outline: as §1

[35] = system: SW620; assay: NCI screen, growth of human tumor cells: Colon Cancer SW620
Experimental: as §2

[36] = system: NCI-H460; assay: NCI screen, growth of human tumor cells: Non-Small Cell Lung NCI-H460; conditions: NCI-H460 (Non-Small Cell Lung), 10^−4 molar
Outline: as §1

[37] = system: UO-31; assay: NCI screen, growth of human tumor cells: Renal Cancer UO-31; conditions: UO-31 (Renal Cancer), 10^−4 molar
Outline: as §1

`N#CCCC1(CCC#N)S(=O)(=O)OCCOS1(=O)=O` [NSC 665941] was tested, and the “percent of growth of human tumor cells” value [1] was 18%, the “% Growth” value ([2]; SF-268, 10^−4 molar) was 24% and the “% Growth” value ([2]; SF-268, 10^−5 molar) was 48%. The “percent of growth of human tumor cells” value [3] was 27%, the “percent of growth of human tumor cells” value [4] was 26% and the “percent of growth of human tumor cells” value [5] was 18%. For the same compound, the “% Growth” value ([5]; BT-549, 10^−4 molar) was 18%, the “% Growth” value ([5]; BT-549, 10^−5 molar) was 33% and the “% Growth” value ([6]; SF-539, 10^−4 molar) was −48%. For the same compound, the “% Growth” value ([6]; SF-539, 10^−5 molar) was 47%, the “Percentage of cancers showing negative growth cancers tested” value [7] was 10^−4 M conc. = 3/32 = 9% and the “percent of growth of human tumor cells” value [8] was 25%. For the same compound, the “percent of growth of human tumor cells” value ([9]; 10^−4 molar) was 5%, the “percent of growth of human tumor cells” value [10] was 18% and the “percent of growth of human tumor cells” value [11] was −8%. The “percent of growth of human tumor cells” value [12] was 4%, the “% Growth” value ([13]; HOP-62, 10^−4 molar) was 16% and the “% Growth” value ([13]; HOP-62, 10^−5 molar) was 46%. The “% Growth” value ([13]; HOP-62, 10^−6 molar) was 48%, the “% Growth” value ([13]; HOP-62, 10^−7 molar) was 25% and the “% Growth” value ([13]; HOP-62, 10^−8 molar) was 25%. For the same compound, the “% Growth” value ([14]; 10^−4 molar) was 1%, the “% Growth” value ([14]; 10^−5 molar) was 63% and the “% Growth” value ([14]; 10^−6 molar) was 69%. The “% Growth” value ([14]; 10^−7 molar) was 68%, the “% Growth” value ([14]; 10^−8 molar) was 56% and the “percent of growth of human tumor cells” value [15] was 10%. For the same compound, the “percent of growth of human tumor cells” value [16] was 5%, the “percent of growth of human tumor cells” value [17] was −17% and the “percent of growth of human tumor cells” value [18] was 23%. The “percent of growth of human tumor cells” value [19] was 13%, the “percent of growth of human tumor cells” value [20] was 25% and the “percent of growth of human tumor cells” value [21] was 24%. For the same compound, the “percent of growth of human tumor cells” value [22] was 6%, the “% Growth” value ([23]; SF-295, 10^−4 molar) was 7% and the “% Growth” value ([23]; SF-295, 10^−5 molar) was 47%. For the same compound, the “percent of growth of human tumor cells” value [24] was 20%, the “percent of growth of human tumor cells” value [25] was 28% and the “percent of growth of human tumor cells” value [26] was 27%. The “percent of growth of human tumor cells” value [27] was 28%, the “% Growth” value ([28]; UACC-62, 10^−4 molar) was 9% and the “% Growth” value ([28]; UACC-62, 10^−5 molar) was 49%. For the same compound, the “percent of growth of human tumor cells” value [29] was 6%, the “percent of growth of human tumor cells” value [30] was 26% and the “percent of growth of human tumor cells” value [31] was 28%. The “percent of growth of human tumor cells” value [32] was 15% and the “percent of growth of human tumor cells” value [33] was 12%.

`C[Si](C)(OCCS(=O)(=O)O)C1S(=O)(=O)OCCOS1(=O)=O` [NSC 674991] was tested, and the “percent of growth of human tumor cells” value [34] was 22%, the “percent of growth of human tumor cells” value ([2]; SF-268 (CNS Cancer), 10^−4 molar) was 11% and the “percent of growth of human tumor cells” value [5] was 11%. The “percent of growth of human tumor cells” value ([6]; SF-539 (CNS Cancer), 10^−4 molar) was 4%, the “Percentage of cancers showing negative growth cancers tested” value [7] was 10^−4 M conc. = 6/21 = 28.6% and the “percent of growth of human tumor cells” value [8] was 18%. For the same compound, the “% Growth” value ([35]; SW620, 10^−4 molar) was −49%, the “% Growth” value ([35]; SW620, 10^−5 molar) was 34% and the “% Growth” value ([35]; SW620, 10^−6 molar) was 25%. For the same compound, the “percent of growth of human tumor cells” value [36] was 22%, the “percent of growth of human tumor cells” value ([9]; 10^−4 molar) was 10% and the “% Growth” value ([9]; 10^−4 molar) was −90%. For the same compound, the “% Growth” value ([9]; 10^−5 molar) was 63%, the “percent of growth of human tumor cells” value [10] was 22% and the “percent of growth of human tumor cells” value ([14]; MCF7/ADR-RES (Breast Cancer), 10^−4 molar) was 20%. For the same compound, the “percent of growth of human tumor cells” value [15] was 20%, the “percent of growth of human tumor cells” value [17] was 15% and the “percent of growth of human tumor cells” value [19] was −10%. The “percent of growth of human tumor cells” value [37] was 29%, the “% Growth” value ([23]; SF-295, 10^−4 molar) was −31% and the “% Growth” value ([23]; SF-295, 10^−5 molar) was 31%. For the same compound, the “percent of growth of human tumor cells” value [24] was 9%, the “percent of growth of human tumor cells” value [25] was −24% and the “% Growth” value ([28]; UACC-62, 10^−4 molar) was 5%. For the same compound, the “% Growth” value ([28]; UACC-62, 10^−5 molar) was 57%, the “percent of growth of human tumor cells” value [29] was 16% and the “percent of growth of human tumor cells” value [31] was −8%.
